# Read-outs that look alike come from different tables or passages of the source. Where a SMILES comes first, the peptide text is derived from it. [ ]: non-standard residue; d: D form. The star is where a group is joined. boroAla((+)-pinanediol) = C[C@H](N*)B1O[C@@H]2C[C@@H]3C[C@@H](C3(C)C)[C@]2(C)O1; Benzoyl(4-(4-Cl-Ph)) = O=C(c1ccc(-c2ccc(Cl)cc2)cc1)*; Ethanesulfonyl(2-NHDecyl) = CCCCCCCCCCNCCS(=O)(=O)*; Propanoyl(3-decylamino) = CCCCCCCCCCNCCC(=O)*; X18 = CCCCc1ccc(-c2ccc(S(=O)(=O)*)cn2)cc1; X21 = O=S(=O)(c1ccc(-c2ccc(Cl)cc2)nc1)*; X30 = CCCCc1ccc(-c2ncc(C(=O)*)cn2)cc1; AlaCOCOOMe = COC(=O)C(=O)[C@H](C)N*; X31 = O=S(=O)(c1ccc(-c2ccccc2)cn1)*; X35 = O=C(c1cnc(-c2ccc(Cl)cc2)nc1)*; X25 = C[C@H](N*)C(=O)c1ncc(C#N)o1; X29 = CCCCCCCCCCN(C)CCS(=O)(=O)*; NDecylGly = CCCCCCCCCCNCC(=O)O; X22 = C[C@H](N*)C(=O)C(=O)O; X17 = CCCCCCCCCNCCCC(=O)*; boroAla = C[C@H](N*)B(O)O; Octanoyl = CCCCCCCC(=O)*; Dab = NCC[C@H](N)C(=O)O; X24 = CCCCCCCCNCCC(=O)*; Dap = NC[C@H](N)C(=O)O
# Tests used:
# [1] = system: methicillin resistant Staphylococcus aureus (MRSA) strain USA300 (NRS384)
# Description: (§1) In vitro antimicrobial activity of each compound was determined by measuring minimal inhibitor concentrations (MICs) using the broth micro-dilution technique as approved by the Clinical and Laboratory Standards Institute (CLSI). Antibacterial activity was measure against two strains of bacteria: 1) methicillin resistant Staphylococcus aureus (MRSA) strain USA300 (NRS384) and 2) Escherichia coli strain MC4100 IMP-4213, which harbors an LptD mutation. Bacterial inocula were prepared by scraping cells into 1 mL of testing media (cation adjusted Mueller Hinton Broth supplemented with 0.002% v/v Tween-80) and diluting to a final OD600nm of 0.01.
# (§2) Test compounds were prepared in DMSO at a concentration of 10 mg/ml. These compound stocks were diluted into testing media at a concentration of 64 μg/ml and 9 serial 1:2 dilutions were made in the same media, in 96-well U bottom microtiter dishes. Bacterial inocula were added to the two fold serial dilutions of test compounds to a final density of OD OD600nm of 0.0005 and incubated stationarily at 35° C. for 22 hours, after which the plates were examined visually.
# [2] = system: Escherichia coli strain MC4100 IMP-4213, which harbors an LptD mutation; conditions: E. coli MC4100 IMP-4213; 35° C., 22 hours
# Description: as §1, §2
# [3] = MRSA USA300 (NRS384), 35° C., 22 hours
Structure (SMILES),"MIC (μg/mL) S. aureus [1, 3] [µg/mL]",MIC (μg/mL) E. coli [2] [µg/mL],"MIC (μg/mL) S. aureus ([1]; USA300, 22 h) [µg/mL]"
CCCCCCCC(=O)N[C@@H](CN)C(=O)N[C@H](C(=O)N[C@@H](C)C(=O)N[C@@H](CCCCN)C(=O)N[C@@H](C)B1O[C@@H]2C[C@@H]3C[C@@H](C3(C)C)[C@]2(C)O1)[C@@H](C)O [Compound 260] (Octanoyl-[Dap]TAK-{boroAla((+)-pinanediol)}),23,32,
CCCCCCCCCCNCCS(=O)(=O)N[C@@H](CCN)C(=O)N[C@H](C(=O)N[C@@H](C)C(=O)N[C@@H](CCCCN)C(=O)N[C@@H](C)C(=O)C(=O)OC)[C@@H](C)O [Compound 252] ({Ethanesulfonyl(2-NHDecyl)}-[Dab]TAK-AlaCOCOOMe),,64,1
CCCCCCCCCCNCC(=O)N[C@H](C(=O)N[C@@H](C)C(=O)N[C@@H](CCCCN)C(=O)N[C@@H](C)B1O[C@@H]2C[C@@H]3C[C@@H](C3(C)C)[C@]2(C)O1)[C@@H](C)O [Compound 229] (H-[NDecylGly]TAK-{boroAla((+)-pinanediol)}),1.3,64,
C[C@H](NC(=O)[C@H](CCCCN)NC(=O)[C@H](C)NC(=O)[C@@H](NC(=O)[C@H](CCN)NC(=O)c1cnc(-c2ccc(Cl)cc2)nc1)[C@@H](C)O)B1O[C@@H]2C[C@@H]3C[C@@H](C3(C)C)[C@]2(C)O1 [Compound 261] (X35-[Dab]TAK-{boroAla((+)-pinanediol)}),1.7,4,
CCCCCCCCCCNCCC(=O)N[C@@H](CCCCN)C(=O)N[C@H](C(=O)N[C@@H](C)C(=O)N[C@@H](CN)C(=O)N[C@@H](C)C(=O)C(=O)O)[C@@H](C)O [Compound 257] ({Propanoyl(3-decylamino)}-KTA[Dap]-X22),,>64,11
CCCCCCCCCNCCCC(=O)N[C@@H](CCCCN)C(=O)N[C@H](C(=O)N[C@@H](C)C(=O)N[C@@H](CCCCN)C(=O)N[C@@H](C)B(O)O)[C@@H](C)O [Compound 228] (X17-KTAK-boroAla),,>64,2
CCCCc1ccc(-c2ccc(CN(CCCN)C(=O)N[C@H](C(=O)N[C@@H](C)C(=O)N[C@@H](CCCCN)C(=O)N[C@@H](C)B3OC4C[C@@H]5C[C@@H](C5(C)C)[C@]4(C)O3)[C@@H](C)O)cc2)cc1 (stereo partly shown) [Compound 132],5.7,32,
CCCCCCCCCCNCCS(=O)(=O)N[C@@H](CCCCN)C(=O)N[C@H](C(=O)N[C@@H](C)C(=O)N[C@@H](CCCCN)C(=O)N[C@@H](C)C(=O)C(=O)O)[C@@H](C)O [Compound 251] ({Ethanesulfonyl(2-NHDecyl)}-KTAK-X22),,>64,0.5
C[C@H](NC(=O)[C@H](CCCCN)NC(=O)[C@H](C)NC(=O)[C@@H](NC(=O)[C@H](CCN)NS(=O)(=O)c1ccc(-c2ccc(Cl)cc2)nc1)[C@@H](C)O)B1O[C@@H]2C[C@@H]3C[C@@H](C3(C)C)[C@]2(C)O1 [Compound 234] (X21-[Dab]TAK-{boroAla((+)-pinanediol)}),16,32,
CCCCCCCCCCNCCC(=O)N[C@@H](CCN)C(=O)N[C@H](C(=O)N[C@@H](C)C(=O)N[C@@H](CCCCN)C(=O)N[C@@H](C)B(O)O)[C@@H](C)O [Compound 219] ({Propanoyl(3-decylamino)}-[Dab]TAK-boroAla),,16,1
CCCCc1ccc(-c2ccc(S(=O)(=O)N[C@@H](CCN)C(=O)N[C@H](C(=O)N[C@@H](C)C(=O)N[C@@H](CCCCN)C(=O)N[C@@H](C)B(O)O)[C@@H](C)O)cn2)cc1 [Compound 233] (X18-[Dab]TAK-boroAla),2,8,
C[C@H](NC(=O)[C@@H](NC(=O)[C@H](CN)NC(=O)c1ccc(-c2ccc(Cl)cc2)cc1)[C@@H](C)O)C(=O)N[C@@H](CCCCN)C(=O)N[C@@H](C)C(=O)c1ncc(C#N)o1 [Compound 266] ({Benzoyl(4-(4-Cl-Ph))}-[Dap]TAK-X25),23,16,
CCCCCCCCCCN(C)CCS(=O)(=O)N[C@@H](CCCCN)C(=O)N[C@H](C(=O)N[C@@H](C)C(=O)N[C@@H](CCCCN)C(=O)N[C@@H](C)B1O[C@@H]2C[C@@H]3C[C@@H](C3(C)C)[C@]2(C)O1)[C@@H](C)O [Compound 245] (X29-KTAK-{boroAla((+)-pinanediol)}),0.35,32,
CCCCCCCCCCNCCC(=O)N[C@@H](CCCCN)C(=O)N[C@@H](CC(=O)O)C(=O)N[C@@H](C)C(=O)N[C@@H](CCCCN)C(=O)N[C@@H](C)B1O[C@@H]2C[C@@H]3C[C@@H](C3(C)C)[C@]2(C)O1 [Compound 224] ({Propanoyl(3-decylamino)}-KDAK-{boroAla((+)-pinanediol)}),11,>64,
C[C@H](NC(=O)[C@H](CCCCN)NC(=O)[C@H](C)NC(=O)[C@@H](NC(=O)[C@H](CCCCN)NS(=O)(=O)c1ccc(-c2ccccc2)cn1)[C@@H](C)O)B1O[C@@H]2C[C@@H]3C[C@@H](C3(C)C)[C@]2(C)O1 [Compound 231] (X31-KTAK-{boroAla((+)-pinanediol)}),32,>64,
CCCCCCCCCCNCCNCC(=O)N[C@H](C(=O)N[C@@H](C)C(=O)N[C@@H](CCCCN)C(=O)N[C@@H](C)B1O[C@@H]2C[C@@H]3C[C@@H](C3(C)C)[C@]2(C)O1)[C@@H](C)O [Compound 244],0.87,64,
CCCCCCCCCCNCC(=O)N[C@@H](CCCCN)C(=O)N[C@H](C(=O)N[C@@H](C)C(=O)N[C@@H](CCCCN)C(=O)N[C@@H](C)B1O[C@@H]2C[C@@H]3C[C@@H](C3(C)C)[C@]2(C)O1)[C@@H](C)O [Compound 230] (H-[NDecylGly]KTAK-{boroAla((+)-pinanediol)}),0.36,32,
CCCCc1ccc(-c2ncc(C(=O)N[C@@H](CCN)C(=O)N[C@H](C(=O)N[C@@H](C)C(=O)N[C@@H](CCCCN)C(=O)N[C@@H](C)B3O[C@@H]4C[C@@H]5C[C@@H](C5(C)C)[C@]4(C)O3)[C@@H](C)O)cn2)cc1 [Compound 270] (X30-[Dab]TAK-{boroAla((+)-pinanediol)}),0.25,0.25,
CCCCCCCCCCNCCS(=O)(=O)N[C@@H](CCN)C(=O)N[C@H](C(=O)N[C@@H](C)C(=O)N[C@@H](CCCCN)C(=O)N[C@@H](C)B1O[C@@H]2C[C@@H]3C[C@@H](C3(C)C)[C@]2(C)O1)[C@@H](C)O [Compound 239] ({Ethanesulfonyl(2-NHDecyl)}-[Dab]TAK-{boroAla((+)-pinanediol)}),0.25,4,
CCCCCCCCNCCC(=O)N[C@@H](CCCCN)C(=O)N[C@H](C(=O)N[C@@H](C)C(=O)N[C@@H](CCCCN)C(=O)N[C@@H](C)B1O[C@@H]2C[C@@H]3C[C@@H](C3(C)C)[C@]2(C)O1)[C@@H](C)O [Compound 226] (X24-KTAK-{boroAla((+)-pinanediol)}),6.3,>64,

# Source: patent US20160194358A1, “LINEAR PEPTIDE ANTIBIOTCS” (priority 2013, published 2016)
